Experimental data published in US20100292279A1, “Bis-(Sulfonylamino) Derivatives in Therapy” (ASTRAZENECA AB, priority 2009, published 2010).

Target: T1, human mPGES-1 (Homo sapiens, UniProt O14684)
T1 construct: host or cells: microsomes
T1 sequence (O14684 1-152): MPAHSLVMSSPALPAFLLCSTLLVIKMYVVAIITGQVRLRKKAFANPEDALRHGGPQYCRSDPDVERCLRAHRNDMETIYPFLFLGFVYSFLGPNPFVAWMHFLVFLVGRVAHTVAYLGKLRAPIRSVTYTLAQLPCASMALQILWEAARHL
Test: Microsomal prostaglandin E synthase biochemical assay
Conditions: microsome preparation containing human mPGES-1; substrate PGH2 10.8 μM, GSH 2.5 mM, pH 6.8; PGE2 by HTRF; average of at least n=2
Procedure: Compounds were tested as inhibitors of microsomal prostaglandin E synthase activity in microsomal prostaglandin E synthase assays and whole cell assays. These assays measure prostaglandin E2 (PGE2) synthesis which is taken as a measure of prostaglandin E synthase activity. Microsomal prostaglandin E synthase biochemical assays used microsomal prostaglandin E synthase-1 in microsomal preparations. The source of the microsomes can be for example interleukin-1β-stimulated human A549 cells (which express human mPGES-1) or Sf9 cells transfected with plasmids encoding human mPGES-1 cDNA.
A solution of test compound was added to a diluted microsome preparation containing is human mPGES-1 and pre-incubated for 15 minutes in potassium phosphate buffer pH 6.8 with cofactor glutathione (GSH). Corresponding solutions without test compound were used as positive controls, and corresponding solutions without test compound and without microsomes were used as negative controls. The enzymatic reaction was then started by addition of the substrate PGH2 in an organic solution (dry acetonitrile).
The reaction was stopped after one minute by adding an acidic solution (pH 1.9) of ferric chloride and citrate (final concentrations 7 mM and 47 mM respectively), by which the PGH2 was sequestered (the PGH2 is reduced to mainly 12-hydroxy heptadecatrineoic acid (12-HHT) which is not detected by the subsequent PGE2 detection step). The resulting solution was then pH neutralized by addition of potassium phosphate buffer, prior to diluting an aliquot of the resulting solution in a weak potassium phosphate buffer (50 mM, pH 6.8) containing 0.2% BSA (w/v). […] The PGE2 formed was quantified by use of a commercial HTRF based kit (catalogue #62PG2PEC or #62P2APEC from Cisbio International). 100% activity was defined as the PGE2 production in positive controls subtracted by the PGE2 production in the negative controls. IC50 values were then determined using standard procedures.

| Compound | IC50 [nM] |
| --- | --- |
| CC(C)C#Cc1ncc(C(=O)NS(=O)(=O)c2ccccc2S(N)(=O)=O)cc1F [Example 46, 5-Fluoro-6-(3-methylbut-1-ynyl)-N-(2-sulfamoylphenylsulfonyl)nicotinamide] | 200 |
| CC(C)Oc1cc(C(=O)NS(=O)(=O)c2ccccc2S(N)(=O)=O)ccc1C#Cc1ccc(C(F)(F)F)cc1 [Example 33, 3-Isopropoxy-N-(2-sulfamoylphenylsulfonyl)-4-((4-(trifluoromethyl)phenyl)ethynyl)benzamide] | 54 |
| CC(C)C#Cc1ccc(C(=O)NS(=O)(=O)c2ccccc2S(N)(=O)=O)cc1OCC(F)(F)C(F)F [Example 58, 4-(3-Methylbut-1-ynyl)-N-(2-sulfamoylphenylsulfonyl)-3-(2,2,3,3-tetrafluoropropoxy)benzamide] | 24 |
| CC(C)C#Cc1ccc(C(=O)NS(=O)(=O)c2ccccc2S(N)(=O)=O)cc1COCCC(F)(F)F [Example 55, 4-(3-Methylbut-1-ynyl)-N-(2-sulfamoylphenylsulfonyl)-3-((3,3,3-trifluoropropoxy)methyl)benzamide] | 80 |
| COc1ccc(S(=O)(=O)NC(=O)c2ccc(-c3cc4ccccc4o3)cc2)c(S(N)(=O)=O)c1 [Example 76, 4-methoxy-benzene-1,2-disulfonic acid 2-amide 1-(4-benzofuran-2-yl-benzoylamide)] | 530 |
| NS(=O)(=O)c1cc(O)ccc1S(=O)(=O)NC(=O)c1ccc(-c2cc3ccccc3o2)cc1 [Example 75, 4-Hydroxy-benzene-1,2-disulfonic acid 2-amide 1-(4-benzofuran-2-yl-benzoylamide)] | 26 |
| NS(=O)(=O)c1ccccc1S(=O)(=O)NC(=O)c1ccc(C#CC2CCCC2)c(OCCCC(F)(F)F)c1 [Example 69, 4-(Cyclopentylethynyl)-N-(2-sulfamoylphenylsulfonyl)-3-(4,4,4-trifluorobutoxy)benzamide] | 11 |
| CC(C)C#Cc1ccc(C(=O)NS(=O)(=O)c2ccccc2S(N)(=O)=O)cc1OCC1CC1 [Example 23, 3-(Cyclopropylmethoxy)-4-(3-methylbut-1-ynyl)-N-(2-sulfamoylphenylsulfonyl)benzamide] | 34 |
| COc1cc(C(=O)NS(=O)(=O)c2ccccc2S(N)(=O)=O)ccc1C#Cc1ccccc1 [Example 73, 3-Methoxy-4-(phenylethynyl)-N-(2-sulfamoylphenylsulfonyl)benzamide] | 24 |
| COc1cc(C(=O)NS(=O)(=O)c2ccccc2S(N)(=O)=O)ccc1OCc1ccc(C)cc1 [Example 29, 3-Methoxy-4-(4-methylbenzyloxy)-N-(2-sulfamoylphenylsulfonyl)benzamide] | 390 |
| CC(C)C#Cc1ccc(C(=O)NS(=O)(=O)c2ccccc2S(N)(=O)=O)cc1OCCCC(F)(F)F [Example 64, 4-(3-Methylbut-1-ynyl)-N-(2-sulfamoylphenylsulfonyl)-3-(4,4,4-trifluorobutoxy)benzamide] | 15 |
| CC(C)C#Cc1ccc(C(=O)NS(=O)(=O)c2ccccc2S(N)(=O)=O)cc1OCCCF [Example 72, 3-(3-Fluoropropoxy)-4-(3-methylbut-1-ynyl)-N-(2-sulfamoylphenylsulfonyl)benzamide] | 43 |
| CC(C)C#Cc1ncc(C(=O)NS(=O)(=O)c2ccccc2S(N)(=O)=O)cc1Cl [Example 44, 5-Chloro-6-(3-methylbut-1-ynyl)-N-(2-sulfamoylphenylsulfonyl)nicotinamide] | 59 |
| NS(=O)(=O)c1ccccc1S(=O)(=O)NC(=O)c1ccc(C#Cc2ccc(C(F)(F)F)cc2)c(CO)c1 [Example 39, 3-(Hydroxymethyl)-N-(2-sulfamoylphenylsulfonyl)-4-((4-(trifluoromethyl)phenyl)ethynyl)benzamide] | 22 |

The next lines start with the values.

| IC50 [nM] | Compound |
| --- | --- |
| 7.8 | Cc1ccc(C#Cc2ccc(C(=O)NS(=O)(=O)c3ccccc3S(N)(=O)=O)cc2OCCC(F)F)cc1 [Example 70, 3-(3,3-Difluoropropoxy)-N-(2-sulfamoylphenylsulfonyl)-4-(p-tolylethynyl)benzamide] |
| 4.4 | NS(=O)(=O)c1ccccc1S(=O)(=O)NC(=O)c1ccc(C#Cc2cccc(Cl)c2)cc1 [Example 12, 4-((3-Chlorophenyl)ethynyl)-N-(2-sulfamoylphenylsulfonyl)benzamide] |
| 8.5 | NS(=O)(=O)c1ccccc1S(=O)(=O)NC(=O)c1ccc(-c2cc3ccccc3o2)c(OCCC(F)(F)F)c1 [Example 59, 4-(Benzofuran-2-yl)-N-(2-sulfamoylphenylsulfonyl)-3-(3,3,3-trifluoropropoxy)benzamide] |
| 14 | CCCC(C)C#Cc1ccc(C(=O)NS(=O)(=O)c2ccccc2S(N)(=O)=O)cc1OCCC(F)(F)F (stereo not shown) [Example 35, 4-(3-Methylhex-1-ynyl)-N-(2-sulfamoylphenylsulfonyl)-3-(3,3,3-trifluoropropoxy)benzamide] |
| 6.4 | Cc1ccccc1C#Cc1ccc(C(=O)NS(=O)(=O)c2ccccc2S(N)(=O)=O)cc1 [Example 8, N-(2-Sulfamoylphenylsulfonyl)-4-(o-tolylethynyl)benzamide] |
| 16 | COc1cc(C(=O)NS(=O)(=O)c2ccccc2S(N)(=O)=O)ccc1C#Cc1ccc(F)cc1 [Example 16, 4-((4-Fluorophenyl)ethynyl)-3-methoxy-N-(2-sulfamoylphenylsulfonyl)benzamide] |
| 5.7 | NS(=O)(=O)c1ccccc1S(=O)(=O)NC(=O)c1ccc(C#Cc2ccc(C(F)(F)F)cc2)cc1 [Example 41, N-(2-Sulfamoylphenylsulfonyl)-4-((4-(trifluoromethyl)phenyl)ethynyl)benzamide] |
| 13 | CC(C)C#Cc1ncc(C(=O)NS(=O)(=O)c2ccccc2S(N)(=O)=O)cc1OCCC(F)(F)F [Example 49, 6-(3-Methylbut-1-ynyl)-N-(2-sulfamoylphenylsulfonyl)-5-(3,3,3-trifluoropropoxy)nicotinamide] |
| 17 | Cc1cc(C(=O)NS(=O)(=O)c2ccccc2S(N)(=O)=O)ccc1C#CC(C)C [Example 50, 3-Methyl-4-(3-methylbut-1-ynyl)-N-(2-sulfamoylphenylsulfonyl)benzamide] |
| 10 | NS(=O)(=O)c1ccccc1S(=O)(=O)NC(=O)c1ccc(C#Cc2ccc(F)cc2)cc1 [Example 11, 4-((4-Fluorophenyl)ethynyl)-N-(2-sulfamoylphenylsulfonyl)benzamide] |
| 12 | COc1cc(C(=O)NS(=O)(=O)c2ccccc2S(N)(=O)=O)ccc1C#Cc1cccc(C)c1 [Example 18, 3-Methoxy-N-(2-sulfamoylphenylsulfonyl)-4-(m-tolylethynyl)benzamide] |
| 9.1 | NS(=O)(=O)c1ccccc1S(=O)(=O)NC(=O)c1ccc(-c2cc3ccccc3o2)c(OCCOCC(F)(F)F)c1 [Example 62, 4-(Benzofuran-2-yl)-N-(2-sulfamoylphenylsulfonyl)-3-(2-(2,2,2-trifluoroethoxy)ethoxy)benzamide] |
| 14 | CCCC(C)C#Cc1ccc(C(=O)NS(=O)(=O)c2ccccc2S(N)(=O)=O)cc1 (stereo not shown) [Example 40, 4-(3-Methylhex-1-ynyl)-N-(2-sulfamoylphenylsulfonyl)benzamide] |
| 9.3 | NS(=O)(=O)c1ccccc1S(=O)(=O)NC(=O)c1ccc(C#Cc2ccccc2)c(OCCOCC(F)(F)F)c1 [Example 63, 4-(Phenylethynyl)-N-(2-sulfamoylphenylsulfonyl)-3-(2-(2,2,2-trifluoroethoxy)ethoxy)benzamide] |
